{
  "source": "paper PMC5764959",
  "about": "“Signaling ammonium across membranes through an ammonium sensor histidine kinase” (Nature Communications, 2018)",
  "key": {"[1]": {"target": "T1, Ks-Amt5 (ammonium sensor histidine kinase, HK domain) (Candidatus Kuenenia stuttgartensis, UniProt Q1Q357)", "T1 construct": "gene amtb; Ks-Amt5^426–679 (soluble HK domain)", "T1 sequence (Q1Q357 entry or part of it)": "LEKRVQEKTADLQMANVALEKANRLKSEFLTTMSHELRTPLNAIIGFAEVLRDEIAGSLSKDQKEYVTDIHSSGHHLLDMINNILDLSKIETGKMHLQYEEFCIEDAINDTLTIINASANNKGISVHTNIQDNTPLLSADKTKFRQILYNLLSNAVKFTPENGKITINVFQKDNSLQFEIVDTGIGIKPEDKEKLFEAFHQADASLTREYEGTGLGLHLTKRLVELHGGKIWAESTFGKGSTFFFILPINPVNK", "experiment": "isothermal titration calorimetry (also SAXS and […] autophosphorylation)", "format": "binding"}, "[2]": {"target": "T2, Ks-Amt5 (ammonium sensor/transducer) (Candidatus Kuenenia stuttgartensis, UniProt Q1Q357)", "T2 sequence (Q1Q357 1-679)": "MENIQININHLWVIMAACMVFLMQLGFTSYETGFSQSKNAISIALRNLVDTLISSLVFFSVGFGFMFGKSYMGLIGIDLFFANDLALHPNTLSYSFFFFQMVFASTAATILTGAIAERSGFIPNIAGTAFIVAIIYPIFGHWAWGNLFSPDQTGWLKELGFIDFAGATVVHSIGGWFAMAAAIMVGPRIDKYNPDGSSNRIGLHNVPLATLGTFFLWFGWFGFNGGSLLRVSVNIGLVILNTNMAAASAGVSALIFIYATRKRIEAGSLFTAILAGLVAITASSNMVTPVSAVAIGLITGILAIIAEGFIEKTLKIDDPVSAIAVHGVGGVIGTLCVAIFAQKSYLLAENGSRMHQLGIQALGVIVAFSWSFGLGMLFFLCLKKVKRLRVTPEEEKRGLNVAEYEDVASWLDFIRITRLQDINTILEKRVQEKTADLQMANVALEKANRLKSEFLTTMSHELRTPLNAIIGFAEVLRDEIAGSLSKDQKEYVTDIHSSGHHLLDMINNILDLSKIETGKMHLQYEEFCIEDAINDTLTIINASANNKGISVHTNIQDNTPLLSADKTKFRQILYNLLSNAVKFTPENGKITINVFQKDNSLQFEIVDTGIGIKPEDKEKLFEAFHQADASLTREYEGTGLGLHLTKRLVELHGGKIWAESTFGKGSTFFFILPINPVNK", "experiment": "microscale thermophoresis (weak; no electrogenic response)", "format": "binding", "parameters": "gene amtb; Ks-Amt5"}, "[3]": {"target": "T2, Ks-Amt5 (ammonium sensor/transducer)", "experiment": "biochemical", "parameters": "gene amtb"}, "[4]": {"target": "T1, Ks-Amt5 (ammonium sensor histidine kinase, HK domain)", "experiment": "isothermal titration calorimetry", "format": "binding"}, "[5]": {"target": "Ks-Amt5 (kust_3690), full-length ammonium sensor histidine kinase (Candidatus Kuenenia stuttgartiensis)", "experiment": "crystal structure; full-length Ks-Amt5; space group P6_(3); 1.98 Å; only the Amt domain (residues 1-405) modelled, HK domain disordered"}, "[6]": {"target": "Ks-Amt5 (kust_3690), full-length ammonium sensor histidine kinase (Candidatus Kuenenia stuttgartiensis)", "experiment": "SAXS; full-length Ks-Amt5 in 0.09 % CYMAL-5; batch or SEC-SAXS (Superdex 200 10/300); buffer C with 5 % glycerol; 20 °C; molecular weight from forward scattering I(0)"}, "[7]": {"target": "Ks-Amt5 (kust_3690), full-length ammonium sensor histidine kinase (Candidatus Kuenenia stuttgartiensis)", "experiment": "SEC; Superdex 200 26/60; buffer C (20 mM HEPES/NaOH pH 7.5 or 20 mM Tris/HCl pH 8.0, 100 mM NaCl) with 5-10 % glycerol and detergent; 4 °C; self-association of the detergent-solubilized protein"}, "[8]": {"target": "T1, Ks-Amt5 (ammonium sensor histidine kinase, HK domain)", "experiment": "SAXS, compaction of the HK domain on nucleotide addition", "format": "binding"}},
  "data": [
    {"compound": "Nc1ncnc2c1ncn2[C@@H]1O[C@H](COP(=O)(O)OP(=O)(O)OP(=O)(O)O)[C@@H](O)[C@H]1O", "note": "[ATP]", "values": [
      {"measurement": "Kd", "setting": "[1]", "value": "11.16 ± 0.03", "unit": "µM"}
    ]},
    {"compound": "CN", "note": "[MA, methylammonium]", "values": [
      {"measurement": "Kd", "setting": "[2]", "value": "2350 ± 440", "unit": "µM"}
    ]},
    {"compound": "N", "note": "[NH4^+]", "values": [
      {"measurement": "Kd", "setting": "[3]", "value": "41 ± 24", "unit": "µM"}
    ]},
    {"compound": "Nc1ncnc2c1ncn2[C@@H]1O[C@H](CO[P@](=O)(O)O[P@](=O)(O)O[P@@](=O)(O)S)[C@@H](O)[C@H]1O", "note": "[ATPγS]", "values": [
      {"measurement": "Kd", "setting": "[4]", "value": "36.74 ± 0.05", "unit": "µM"}
    ]},
    {"compound": "Ks-Amt5 (kust_3690), full-length ammonium sensor histidine kinase (natural protein)", "values": [
      {"measurement": "stoichiometry N", "setting": "[5]", "value": 3},
      {"measurement": "stoichiometry N", "setting": "[6]", "value": 3},
      {"measurement": "stoichiometry N", "setting": "[7]", "value": 3}
    ]},
    {"compound": "Nc1ncnc2c1ncn2[C@@H]1O[C@H](COP(=O)(O)OP(=O)(O)CP(=O)(O)O)[C@@H](O)[C@H]1O", "note": "[APPCP]", "values": [
      {"measurement": "SAXS, compaction of the HK domain on nucleotide addition", "setting": "[8]", "value": "change toward a more compact and less-flexible structure when either APPCP or ATP are added to the HK domain"}
    ]}
  ]
}
